The source of these data is ChEMBL document CHEMBL1201862, “PubChem BioAssay data set” (2004).

Each structure is given as a SMILES string.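 Test compounds were applied to cells in 96-well plates for 48 hours at 5 doses. Abbreviation: GI50, concentration required for 50% inhibition of growth.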 Activity calls are given as the source filed them. No stated cut-off is given here; in the data, active = GI50 up to about 1.1 µM and inactive = higher.

Among the test systems are CCRF-CEM; COLO 205; EKVX; HOP-62; HOP-92; HT-29; Hs-578T; IGROV-1; M14; MDA-MB-435; NCI-H23; OVCAR-4; OVCAR-5; PC-3; SF-268; SK-MEL-28; SNB-75; SW-620; T47D.
Experiment in all cases: NCI tumour cell line growth inhibition, 48 h

Turning to `Cc1nn(C(=O)c2ccccc2O)c2c1C(c1ccc3ccccc3c1O)SC(=N)N2` (stereo not given), the GI50 with CCRF-CEM was 3.76 µM (inactive); in the assay on COLO 205 it was 2.4 µM (inactive); in the assay on EKVX, 9.79 µM (inactive); in the assay on HOP-62, 4.26 µM (inactive); in the assay on HOP-92, 0.378 µM (active); in the assay with HT-29 it was 9.55 µM (inactive). In addition, the GI50 in the assay on Hs-578T was 1.7 µM (inactive); in the assay on IGROV-1 it was 3.61 µM (inactive); in the assay on M14 it was 6.21 µM (inactive); with MDA-MB-435 it was 5.93 µM (inactive); with NCI-H23, 4.97 µM (inactive); in the assay on OVCAR-4 it was 5.13 µM (inactive). Also, the GI50 with OVCAR-5 was 7.19 µM (inactive); in the assay on PC-3, 3.66 µM (inactive); in the assay on SF-268, 4.89 µM (inactive); in the assay on SK-MEL-28, 5.16 µM (inactive); in the assay with SNB-75, 2.85 µM (inactive); in the assay with SW-620 it was 4.61 µM (inactive). Besides, in the assay with T47D, the GI50 is 1.87 µM (inactive).

As to `C=C(C)CNC(=S)N(N)c1ccc2ccccc2c1`, the GI50 with CCRF-CEM is 95.3 µM (inactive); in the assay on COLO 205, > 100 µM (inactive); with EKVX, 24.7 µM (inactive); in the assay on HOP-62 it was > 100 µM (inactive); with HOP-92, > 100 µM (inactive); in the assay with HT-29, 65.3 µM (inactive). Besides, the GI50 in the assay on Hs-578T was > 100 µM (inactive); with IGROV-1 it was 11.4 µM (inactive); with M14 it was > 100 µM (inactive); in the assay with MDA-MB-435, 72.3 µM (inactive); in the assay with NCI-H23 it was > 100 µM (inactive); in the assay with OVCAR-4, > 100 µM (inactive). The GI50 in the assay on OVCAR-5 was 27.7 µM (inactive); in the assay with PC-3 it was 61.1 µM (inactive); in the assay on SF-268 it was 78 µM (inactive); in the assay on SK-MEL-28, > 100 µM (inactive); in the assay on SNB-75 it was > 100 µM (inactive); in the assay on SW-620, > 100 µM (inactive). Further, the GI50 in the assay with T47D was 24.2 µM (inactive).

Consider `Nc1nc(Cl)c(N)c(NCC2(CO)CC2)n1`, for which the GI50 with CCRF-CEM, in the assay on COLO 205, in the assay on EKVX, in the assay with HOP-62, in the assay with HOP-92 and in the assay with HT-29 was > 100 µM (inactive) each time. Moreover, the GI50 with Hs-578T, in the assay on IGROV-1, in the assay on M14, in the assay with MDA-MB-435, with NCI-H23 and with OVCAR-4 was > 100 µM (inactive) each time. Besides, the GI50 in the assay on OVCAR-5, in the assay on PC-3, in the assay with SF-268, with SK-MEL-28, in the assay on SNB-75 and in the assay with SW-620 was > 100 µM (inactive) each time. In the assay with T47D, the GI50 was > 100 µM (inactive).

Regarding `CC(=O)OCc1cncn1S(=O)(=O)c1ccc(C)cc1`, the GI50 in the assay on CCRF-CEM is 30.4 µM (inactive); in the assay on COLO 205 it was 53.1 µM (inactive); in the assay with EKVX, > 100 µM (inactive); with HOP-62, > 100 µM (inactive); with HOP-92, > 100 µM (inactive); in the assay with HT-29, 33.7 µM (inactive). For the same compound, the GI50 with Hs-578T was > 78.5 µM (inactive); with IGROV-1 it was > 74 µM (inactive); in the assay on M14 it was 42.2 µM (inactive); with MDA-MB-435, 10.4 µM (inactive); in the assay with NCI-H23 it was > 100 µM (inactive); in the assay on OVCAR-4, > 76.7 µM (inactive). In addition, the GI50 is > 100 µM (inactive) in the assay on OVCAR-5; > 100 µM (inactive) with PC-3; > 100 µM (inactive) with SF-268; > 100 µM (inactive) in the assay on SK-MEL-28; > 100 µM (inactive) with SNB-75; 36.4 µM (inactive) in the assay on SW-620. Besides, the GI50 in the assay on T47D is 79.4 µM (inactive).

Regarding `Cc1cc(NS(=O)(=O)c2ccc(NC(=O)c3cccc4c(NNc5ccc(S(=O)(=O)N=C(N)N)cc5)c5ccccc5nc34)cc2)no1`, the GI50 is 29 µM (inactive) in the assay with CCRF-CEM; 91.6 µM (inactive) with COLO 205; 19.7 µM (inactive) with EKVX; > 100 µM (inactive) in the assay on HOP-62; 17.3 µM (inactive) in the assay with HOP-92; 30.5 µM (inactive) with HT-29. Also, the GI50 is 27.4 µM (inactive) in the assay with Hs-578T; 45.6 µM (inactive) in the assay with IGROV-1; > 100 µM (inactive) in the assay with M14; 92.9 µM (inactive) with MDA-MB-435; 74.5 µM (inactive) in the assay with NCI-H23; 58.7 µM (inactive) with OVCAR-4. Moreover, the GI50 in the assay on OVCAR-5 was 83.6 µM (inactive); in the assay with PC-3, 46.1 µM (inactive); in the assay on SF-268, 39 µM (inactive); in the assay on SK-MEL-28, 33.9 µM (inactive); in the assay on SNB-75 it was 28.2 µM (inactive); in the assay with SW-620, 60 µM (inactive). In addition, the GI50 in the assay on T47D was 34.6 µM (inactive).

Regarding `CC(C)N(C(=O)c1ccc(NCc2cc(O)ccc2O)cc1)C(C)C`, the GI50 in the assay on CCRF-CEM is 3.08 µM (inactive); with COLO 205, 30.4 µM (inactive); with EKVX, 14.7 µM (inactive); in the assay on HOP-62, 25.5 µM (inactive); with HOP-92, 11.9 µM (inactive); with HT-29, 18 µM (inactive). Also, the GI50 in the assay on Hs-578T is 26.2 µM (inactive); in the assay with IGROV-1 it was 17.7 µM (inactive); in the assay with M14, 17.2 µM (inactive); with MDA-MB-435, 17.1 µM (inactive); in the assay with NCI-H23, 17.9 µM (inactive); in the assay on OVCAR-4, 15.1 µM (inactive). Also, the GI50 in the assay with OVCAR-5 is 21.5 µM (inactive); in the assay with PC-3, 18.8 µM (inactive); with SF-268, 17.6 µM (inactive); with SK-MEL-28, 16.9 µM (inactive); in the assay on SNB-75 it was 24.8 µM (inactive); with SW-620, 21.5 µM (inactive). Moreover, the GI50 in the assay with T47D was 11.8 µM (inactive).

For the compound `Nc1cccc(/C=C/C(=O)N2CCN(CCOC(c3ccccc3)c3ccccc3)CC2)c1`, the GI50 was 10 µM (inactive) in the assay with CCRF-CEM; 12.7 µM (inactive) in the assay on COLO 205; 18.7 µM (inactive) in the assay with EKVX; 17.7 µM (inactive) with HOP-62; 12.9 µM (inactive) with HOP-92; 8.2 µM (inactive) with HT-29. In addition, the GI50 was 21 µM (inactive) in the assay on Hs-578T; 18.2 µM (inactive) in the assay with IGROV-1; 13.2 µM (inactive) with M14; 16.3 µM (inactive) with MDA-MB-435; 18.5 µM (inactive) in the assay on NCI-H23; 12.4 µM (inactive) in the assay on OVCAR-4. Besides, the GI50 with OVCAR-5 is 19.1 µM (inactive); in the assay on PC-3, 14.7 µM (inactive); with SF-268 it was 17.4 µM (inactive); with SK-MEL-28, 15 µM (inactive); with SNB-75, 13.1 µM (inactive); in the assay on SW-620, 15.7 µM (inactive). For the same compound, the GI50 with T47D was 13.1 µM (inactive).

Consider `[O-][n+]1onc(-c2ccccc2)c1CN1CCOCC1`, for which the GI50 was 22.8 µM (inactive) in the assay with CCRF-CEM; > 100 µM (inactive) in the assay on COLO 205; > 100 µM (inactive) in the assay with EKVX; > 100 µM (inactive) in the assay with HOP-62; > 100 µM (inactive) with HOP-92; > 100 µM (inactive) in the assay with HT-29. The GI50 in the assay on Hs-578T is 68.1 µM (inactive); in the assay with IGROV-1 it was 80 µM (inactive); in the assay on M14 it was > 100 µM (inactive); in the assay with MDA-MB-435, > 100 µM (inactive); in the assay with NCI-H23, > 100 µM (inactive); with OVCAR-4 it was 10.4 µM (inactive). Further, the GI50 in the assay with OVCAR-5 is > 100 µM (inactive); in the assay with PC-3, 77.8 µM (inactive); with SF-268, > 100 µM (inactive); in the assay on SK-MEL-28, > 100 µM (inactive); in the assay with SNB-75, > 100 µM (inactive); in the assay with SW-620, > 100 µM (inactive). The GI50 with T47D was 71.6 µM (inactive).

Turning to `CCNc1nnc(-c2ccccc2Nc2ccccc2-c2nnc(NCC)s2)s1`, the GI50 is 4.18 µM (inactive) with CCRF-CEM; > 32.8 µM (inactive) with COLO 205; 20.9 µM (inactive) in the assay with EKVX; 22.2 µM (inactive) in the assay with HOP-62; 5.92 µM (inactive) in the assay with HOP-92; 10.9 µM (inactive) in the assay with HT-29. In addition, the GI50 with Hs-578T is 12.3 µM (inactive); in the assay on IGROV-1, 6.18 µM (inactive); in the assay with M14, 14.5 µM (inactive); in the assay on MDA-MB-435, 17.4 µM (inactive); with NCI-H23, 14 µM (inactive); in the assay with OVCAR-4 it was 27.5 µM (inactive). In addition, the GI50 in the assay with OVCAR-5 was 18.2 µM (inactive); in the assay with PC-3, 17 µM (inactive); with SF-268, 13.4 µM (inactive); with SK-MEL-28, 18.4 µM (inactive); in the assay on SNB-75, 18.2 µM (inactive); in the assay with SW-620, 19.4 µM (inactive). Besides, the GI50 with T47D was 5.32 µM (inactive).

Take `Cc1occc1C(=S)Nc1ccc(Cl)c(/C=N/OC(C)(C)C)c1`: the GI50 was 17.8 µM (inactive) in the assay on CCRF-CEM; 17.5 µM (inactive) in the assay with COLO 205; 18.4 µM (inactive) in the assay with EKVX; 19.9 µM (inactive) with HOP-62; 13 µM (inactive) with HOP-92; 13.7 µM (inactive) in the assay on HT-29. For the same compound, the GI50 is 19.8 µM (inactive) with Hs-578T; 23.8 µM (inactive) in the assay with IGROV-1; 18.2 µM (inactive) in the assay with M14; 16.6 µM (inactive) in the assay with MDA-MB-435; 15.3 µM (inactive) in the assay with NCI-H23; 18.3 µM (inactive) in the assay on OVCAR-4. Further, the GI50 in the assay with OVCAR-5 is 15 µM (inactive); in the assay with PC-3, 16 µM (inactive); in the assay with SF-268 it was 22.6 µM (inactive); in the assay on SK-MEL-28, 17.7 µM (inactive); in the assay with SNB-75 it was 21.8 µM (inactive); with SW-620, 18.5 µM (inactive). In addition, the GI50 with T47D was 16.5 µM (inactive).
